Measured values from patent US8754054B2, “Antibacterial compounds, methods of making them, and uses thereof” (Albany Molecular Research, Inc., priority 2010, dated 2014).
Converted amounts (≈) assume the structure as drawn. Where a name gives a salt, the structure may show the parent alone. Read-outs that look alike come from different tables or passages of the source.

System: MRSA 43300
Test: Antibacterial activity, NCCLS dilution method (Table 9)
Type: cell-based, S. aureus
Details: Staphylococcus aureus, MRSA, read-out: MRSA 43300 MIC
Excerpt: NCCLS standards for antimicrobial susceptibility testing using the dilution method were followed. See: Performance Standards for Antimicrobial Susceptibility Testing; Fourteenth Informational Supplement. NCCLS Document M100-S14 (ISBN 1-56238-516-X), 2004. NCCLS, 940 West Valley Road, Suite 1400, Wayne, Pa. 19087-1898 USA, 2004; Methods for Dilution Antimicrobial Susceptibility Tests for Bacteria that Grow Aerobically; Approved Standard—Sixth Edition. NCCLS document M7-A6 (IBSBN 1-56238-486-4), NCCLS, 940 West Valley Road, Suite 1400, Wayne, Pa. 19087-1898 USA, 2003, which are hereby incorporated by reference in their entirety.

[1] = MRSA 43300, dilution method, labels marked a tested as a mixture of diastereomers

COC(=O)c1c(C)cc2c(c1OC)[C@]1(O)C(=O)c3cc4c(c(OC)c3C(=O)[C@]1(OC)[C@H](O)C2)C(=O)C=C(NC1O[C@@H](C)[C@H](OC)[C@@H](O)[C@H]1OC)C4=O (mixture of isomers) [Example 5, (6R,6aS,14aR)-Methyl 6,14a-dihydroxy-11-((3R,4R,5R,6S)-4-hydroxy-3,5-dimethoxy-6-methyltetrahydro-2H-pyran-2-ylamino)-1,6a,8-trimethoxy-3-methyl-7,9,12,14-tetraoxo-5,6,6a,7,9,12,14,14a-octahydrobenzo[a]tetracene-2-carboxylate]
MIC [1]: 2 µg/mL (≈ 2.76 µM)

CO[C@@H]1[C@@H](O)[C@@H](OC)C(NC2=CC(=O)c3c(cc4c(c3O)C(=O)[C@]3(OC)[C@H](O)Cc5cc(C)c(C(=O)N(C)C)c(O)c5[C@]3(O)C4=O)C2=O)O[C@H]1C (mixture of isomers) [Example 16, (6R,6aS,14aR)-1,6,8,14a-Tetrahydroxy-11-((3R,4R,5R,6S)-4-hydroxy-3,5-dimethoxy-6-methyltetrahydro-2H-pyran-2-ylamino)-6a-methoxy-N,N,3-trimethyl-7,9,12,14-tetraoxo-5,6,6a,7,9,12,14,14a-octahydrobenzo[a]tetracene-2-carboxamide]
MIC [1]: 16 µg/mL (≈ 22.5 µM)

CO[C@@H]1[C@@H](O)[C@@H](OC)C(NC2=CC(=O)c3c(cc4c(c3O)C(=O)[C@]3(OC)[C@H](O)Cc5cc(C)c(C(=O)NCc6cccnc6)c(O)c5[C@]3(O)C4=O)C2=O)O[C@H]1C (mixture of isomers) [Example 17, (6R,6aS,14aR)-1,6,8,14a-Tetrahydroxy-11-((3R,4R,5R,6S)-4-hydroxy-3,5-dimethoxy-6-methyltetrahydro-2H-pyran-2-ylamino)-6a-methoxy-3-methyl-7,9,12,14-tetraoxo-N-(pyridin-3-ylmethyl)-5,6,6a,7,9,12,14,14a-octahydrobenzo[a]tetracene-2-carboxamide hydrochloride]
MIC: 32 µg/mL

CO[C@@H]1[C@@H](O)[C@@H](OC)C(NC2=CC(=O)c3c(cc4c(c3O)C(=O)[C@]3(OC)[C@H](O)Cc5cc(C)c(C(=O)NC6CCCCC6)c(O)c5[C@]3(O)C4=O)C2=O)O[C@H]1C (mixture of isomers) [Example 18, (6R,6aS,14aR)—N-Cyclohexyl-1,6,8,14a-tetrahydroxy-11-((3R,4R,5R,6S)-4-hydroxy-3,5-dimethoxy-6-methyltetrahydro-2H-pyran-2-ylamino)-6a-methoxy-3-methyl-7,9,12,14-tetraoxo-5,6,6a,7,9,12,14,14a-octahydrobenzo[a]tetracene-2-carboxamide]
MIC [1]: 2 µg/mL (≈ 2.62 µM)

CNC(=O)c1c(C)cc2c(c1O)[C@]1(O)C(=O)c3cc4c(c(O)c3C(=O)[C@]1(OC)[C@H](O)C2)C(=O)C=C(NC1O[C@@H](C)[C@H](OC)[C@@H](O)[C@H]1OC)C4=O (mixture of isomers) [Example 19, (6R,6aS,14aR)-1,6,8,14a-Tetrahydroxy-11-((3R,4R,5R,6S)-4-hydroxy-3,5-dimethoxy-6-methyltetrahydro-2H-pyran-2-ylamino)-6a-methoxy-N,3-dimethyl-7,9,12,14-tetraoxo-5,6,6a,7,9,12,14,14a-octahydrobenzo[a]tetracene-2-carboxamide]
MIC [1]: 2 µg/mL (≈ 2.87 µM)

CO[C@@H]1[C@@H](O)[C@@H](OC)C(NC2=CC(=O)c3c(cc4c(c3O)C(=O)[C@]3(OC)[C@H](O)Cc5cc(C)c(C(=O)N6CCCCC6)c(O)c5[C@]3(O)C4=O)C2=O)O[C@H]1C (mixture of isomers) [Example 21, (6R,6aS,14aR)-1,6,8,14a-Tetrahydroxy-11-((3R,4R,5R,6S)-4-hydroxy-3,5-dimethoxy-6-methyltetrahydro-2H-pyran-2-ylamino)-6a-methoxy-3-methyl-2-(piperidine-1-carbonyl)-6,6a-dihydrobenzo[a]tetracene-7,9,12,14(5H,14aH)-tetraone]
MIC [1]: 1 µg/mL (≈ 1.33 µM)

CO[C@@H]1[C@@H](O)[C@@H](OC)C(NC2=CC(=O)c3c(cc4c(c3O)C(=O)[C@]3(OC)[C@H](O)Cc5cc(C)c(C(=O)N6CCCC6)c(O)c5[C@]3(O)C4=O)C2=O)O[C@H]1C (mixture of isomers) [Example 22, (6R,6aS,14aR)-1,6,8,14a-Tetrahydroxy-11-((3R,4R,5R,6S)-4-hydroxy-3,5-dimethoxy-6-methyltetrahydro-2H-pyran-2-ylamino)-6a-methoxy-3-methyl-2-(pyrrolidine-1-carbonyl)-6,6a-dihydrobenzo[a]tetracene-7,9,12,14(5H,14aH)-tetraone]
MIC [1]: 1 µg/mL (≈ 1.36 µM)

CO[C@@H]1[C@@H](O)[C@@H](OC)C(NC2=CC(=O)c3c(cc4c(c3O)C(=O)[C@]3(OC)[C@H](O)Cc5cc(C)c(C(=O)Nc6ccc(-c7ccccc7)cc6)c(O)c5[C@]3(O)C4=O)C2=O)O[C@H]1C (mixture of isomers) [Example 23, (6R,6aS,14aR)—N-(Biphenyl-4-yl)-1,6,8,14a-tetrahydroxy-11-((3R,4R,5R,6S)-4-hydroxy-3,5-dimethoxy-6-methyltetrahydro-2H-pyran-2-ylamino)-6a-methoxy-3-methyl-7,9,12,14-tetraoxo-5,6,6a,7,9,12,14,14a-octahydrobenzo[a]tetracene-2-carboxamide]
MIC [1]: 4 µg/mL (≈ 4.79 µM)

CO[C@@H]1[C@@H](O)[C@@H](OC)C(NC2=CC(=O)c3c(cc4c(c3O)C(=O)[C@]3(OC)[C@H](O)Cc5cc(C)c(C(=O)NCCO)c(O)c5[C@]3(O)C4=O)C2=O)O[C@H]1C (mixture of isomers) [Example 24, (6R,6aS,14aR)-1,6,8,14a-Tetrahydroxy-11-((3R,4R,5R,6S)-4-hydroxy-3,5-dimethoxy-6-methyltetrahydro-2H-pyran-2-ylamino)-N-(2-hydroxyethyl)-6a-methoxy-3-methyl-7,9,12,14-tetraoxo-5,6,6a,7,9,12,14,14a-octahydrobenzo[a]tetracene-2-carboxamide]
MIC [1]: 32 µg/mL (≈ 44 µM)

CO[C@@H]1[C@@H](O)[C@@H](OC)C(NC2=CC(=O)c3c(cc4c(c3O)C(=O)[C@]3(OC)[C@H](O)Cc5cc(C)c(C(=O)NCCCc6ccccc6)c(O)c5[C@]3(O)C4=O)C2=O)O[C@H]1C (mixture of isomers) [Example 25, (6R,6aS,14aR)-1,6,8,14a-Tetrahydroxy-11-((3R,4R,5R,6S)-4-hydroxy-3,5-dimethoxy-6-methyltetrahydro-2H-pyran-2-ylamino)-6a-methoxy-3-methyl-7,9,12,14-tetraoxo-N-(3-phenylpropyl)-5,6,6a,7,9,12,14,14a-octahydrobenzo[a]tetracene-2-carboxamide]
MIC [1]: 2 to 4 µg/mL (≈ 2.5 to 4.99 µM)

CO[C@@H]1[C@@H](O)[C@@H](OC)C(NC2=CC(=O)c3c(cc4c(c3O)C(=O)[C@]3(OC)[C@H](O)Cc5cc(C)c(C(=O)NCc6ccc(F)cc6)c(O)c5[C@]3(O)C4=O)C2=O)O[C@H]1C (mixture of isomers) [Example 26, (6R,6aS,14aR)—N-(4-Fluorobenzyl)-1,6,8,14a-tetrahydroxy-11-((3R,4R,5R,6S)-4-hydroxy-3,5-dimethoxy-6-methyltetrahydro-2H-pyran-2-ylamino)-6a-methoxy-3-methyl-7,9,12,14-tetraoxo-5,6,6a,7,9,12,14,14a-octahydrobenzo[a]tetracene-2-carboxamide]
MIC [1]: 0.5 µg/mL (≈ 0.632 µM)

CO[C@@H]1[C@@H](O)[C@@H](OC)C(NC2=CC(=O)c3c(cc4c(c3O)C(=O)[C@]3(OC)[C@H](O)Cc5cc(C)c(C(=O)NCc6ccc(Cl)cc6)c(O)c5[C@]3(O)C4=O)C2=O)O[C@H]1C (mixture of isomers) [Example 27, (6R,6aS,14aR)—N-(4-Chlorobenzyl)-1,6,8,14a-tetrahydroxy-11-((3R,4R,5R,6S)-4-hydroxy-3,5-dimethoxy-6-methyltetrahydro-2H-pyran-2-ylamino)-6a-methoxy-3-methyl-7,9,12,14-tetraoxo-5,6,6a,7,9,12,14,14a-octahydrobenzo[a]tetracene-2-carboxamide]
MIC [1]: 8 µg/mL (≈ 9.91 µM)

CO[C@@H]1[C@@H](O)[C@@H](OC)C(NC2=CC(=O)c3c(cc4c(c3O)C(=O)[C@]3(OC)[C@H](O)Cc5cc(C)c(C(=O)NCc6ccccc6)c(O)c5[C@]3(O)C4=O)C2=O)O[C@H]1C (mixture of isomers) [Example 30, (6R,6aS,14aR)—N-Benzyl-1,6,8,14a-tetrahydroxy-11-((3R,4R,5R,6S)-4-hydroxy-3,5-dimethoxy-6-methyltetrahydro-2H-pyran-2-ylamino)-6a-methoxy-3-methyl-7,9,12,14-tetraoxo-5,6,6a,7,9,12,14,14a-octahydrobenzo[a]tetracene-2-carboxamide]
MIC [1]: 0.12 to 0.5 µg/mL (≈ 0.155 to 0.647 µM)

CO[C@@H]1[C@@H](O)[C@@H](OC)C(NC2=CC(=O)c3c(cc4c(c3O)C(=O)[C@]3(OC)[C@H](O)Cc5cc(C)c(C(=O)NC(C)C)c(O)c5[C@]3(O)C4=O)C2=O)O[C@H]1C (mixture of isomers) [Example 31, (6R,6aS,14aR)-1,6,8,14a-Tetrahydroxy-11-((3R,4R,5R,6S)-4-hydroxy-3,5-dimethoxy-6-methyltetrahydro-2H-pyran-2-ylamino)-N-isopropyl-6a-methoxy-3-methyl-7,9,12,14-tetraoxo-5,6,6a,7,9,12,14,14a-octahydrobenzo[a]tetracene-2-carboxamide]
MIC [1]: 2 µg/mL (≈ 2.76 µM)

CO[C@@H]1[C@@H](O)[C@@H](OC)C(NC2=CC(=O)c3c(cc4c(c3O)C(=O)[C@]3(OC)[C@H](O)Cc5cc(C)c(C(=O)OCc6ccccc6)c(O)c5[C@]3(O)C4=O)C2=O)O[C@H]1C (mixture of isomers) [Example 37, (6R,6aS,14aR)-Benzyl 1,6,8,14a-tetrahydroxy-11-((3R,4R,5R,6S)-4-hydroxy-3,5-dimethoxy-6-methyltetrahydro-2H-pyran-2-ylamino)-6a-methoxy-3-methyl-7,9,12,14-tetraoxo-5,6,6a,7,9,12,14,14a-octahydrobenzo[a]tetracene-2-carboxylate]
MIC [1]: 0.25 µg/mL (≈ 0.323 µM)

COC(=O)c1c(C)cc2c(c1O)[C@]1(O)C(=O)c3cc4c(c(O)c3C(=O)[C@]1(OC)[C@H](O)C2)C(=O)C=C(N[C@H]1O[C@@H](C)[C@H](OC)C(=NO)[C@H]1OC)C4=O (single isomer, unassigned) [Example 49]
MIC [1]: 0.06 µg/mL (≈ 0.0844 µM)

COC(=O)c1c(C)cc2c(c1O)[C@]1(O)C(=O)c3cc4c(c(O)c3C(=O)[C@]1(OC)[C@H](O)C2)C(=O)C=C(N[C@H]1O[C@@H](C)[C@H](OC)[C@@H](O)[C@H]1OC)C4(C)O (single isomer, unassigned) [Example 55]
MIC [1]: 32 µg/mL (≈ 44.8 µM)
